27 compounds from article PMC9317397, “Design and Synthesis of Hepatitis B Virus (HBV) Capsid Assembly Modulators and Evaluation of Their Activity in Mammalian Cell Model” (Pharmaceuticals, 2022) can be followed below.

Data set [1] concerns the target HBV capsid assembly (full-length HBc protein, genotype D1) (Hepatitis B virus genotype D subtype ayw, UniProt P03146, A80I/T33N/V74G). Kind of data set: HBV capsid assembly in SFV1/HBc-infected HBc-producing BHK-21 cells, native agarose gel anti-HBc immunoblot. Type of data set: cell-based. As to conditions: HBc-producing BHK-21 cells; for Effect on capsid production / mobility in initial test: 1–50 μM, 24 h (Figure 5); for Effect on Capsid Assembly / Effect on Capsid Assembly, Starting Concentration: 24 h, native agarose immunoblot; for Type of effect on HBV capsid assembly in dose-dependent experiments: 0.1–50 µM, 24 h (Figure 6).

In the next data set the test system is HBV. As to conditions: HepG2.2.15 cells, six days, secreted virion DNA.
The test system of another data set is BHK-21 cells. Kind of data set: Cytopathic effect (cell morphology, proliferation, trypan blue) in non-infected BHK-21 cells. Type of data set: cell-based, hamster. As to conditions: 24 h. As to the method: To define HAP compound non-toxic concentrations for initial studies, non-infected BHK-21 cells were incubated with compounds at four different concentrations for 24 h (25 μM, 50 μM, 100 μM, and 200 μM), and the cytopathic effects were evaluated by analysis of cell morphology and proliferation changes. […] 1c, 1j, 1k and 4a, and 7b. The reference comp.
The cytopathic effect of the compounds was estimated by phase contrast microscopy and standard trypan blue staining, and the cells were counted using an automatic cell counter (Invitrogen). BHK-21 and HepG2.2.15 cells were incubated for 24 h with the studied compounds at […] (25, 50, 100, 150 and 200 μM) and the cell morphology was controlled under microscope to evaluate cytopathic effects (Table 1, the highest non-toxic concentration).
In general terms: Protection from cytopathic effect is a common read-out in antiviral testing.

Data set [2] can be described thus: MTT viability assay in BHK-21 cells. The format is cell-based, hamster. As to conditions: hamster, 200 µM, read-out: Cell viability, percentage from untreated cells. As to the method:
BHK-21 cells were incubated with different concentrations (6.125, 12.25, 25, 50, 100, and 200 µM) of the respective compounds and the cell viability was calculated as a percentage from untreated cells (100%) (Figure 7). In general, the results confirmed the morphological observation of relatively low cytotoxicity for tested compounds at concentrations below 100 µM.
Additionally, cell viability was determined by tetrazolium salt-based assay using the Vybrant MTT Cell Proliferation kit (Thermo Fisher Scientific, Waltham, MA, USA) or more sensitive CCK-8 kit (Abcam). First, the cell numbers and protocol were optimized for BHK-21 and HepG2.2.15 cells, as indicated in the MTT assay kit or CCK-8 reagent manufacturer’s protocol, and standard curves with OD values were created and evaluated.
In order to evaluate the toxicity of selected HAP compounds in the medium, 1.3 × 10^4 BHK-21 were seeded per well in 96-well plates and treated with the studied compounds for 24 h at concentrations 6.125; 12.25; 25; 50; 100; and 200 μM. Control cells without HAP compounds and MTT-free cell media were included in the experiments. The MTT test was performed according to the full protocol version (Thermo Fisher Scientific).
(In general: Tetrazolium assays rely on reduction of a dye to a coloured formazan, in cell work by metabolically active cells.)

Where [3] appears, read: non-infected BHK-21 cells, no noticeable cytopathic effect.

Structures are written as SMILES. Entries after “also recorded” stand apart in the source; their conditions may differ. Like-named read-outs stand apart in the source and are kept apart here.

Sequence of HBV capsid assembly (full-length HBc protein, genotype D1) (P03146 whole entry A80I/T33N/V74G, looked up): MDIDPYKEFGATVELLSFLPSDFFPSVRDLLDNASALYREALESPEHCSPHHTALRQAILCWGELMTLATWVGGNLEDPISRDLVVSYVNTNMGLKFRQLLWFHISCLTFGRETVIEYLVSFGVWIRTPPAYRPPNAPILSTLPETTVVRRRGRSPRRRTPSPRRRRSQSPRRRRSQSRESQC

`CCOC(=O)C1=C(C)NC(c2nccs2)=CC1c1ccc(F)cc1Cl` (stereo not drawn) [compound 6]: in data set [1], the “Effect on capsid production / mobility in initial test” value is listed as “did not induce a significant effect on the capsid mobility” and the “Effect on Capsid Assembly” value is listed as “No effect”.
On to `CCCOCCOC(=O)C1=C(C)NC(c2ncc(F)cc2F)=NC1c1ccc(F)cc1Cl` (stereo not drawn) [1f], for which the “HBV DNA, % from control” value in the data set on HBV (20 µM) was determined as 52.5%. In addition, the “The Highest Non-Toxic Concentration” value in the data set on BHK-21 cells (setting [3]) turned out to be 100 µM. Also, the viability at 24 h, 200 µM in data set [2] is > 90%. Also, in data set [1], the “Type of effect on HBV capsid assembly in dose-dependent experiments” value (from here on “Type of effect on HBV capsid assembly”) is “dose-dependent HBc products accumulation”; the “Effect on capsid production / mobility in initial test” value is reported as “misfolding of the HBV capsid”; the “Effect on Capsid Assembly” value is recorded as “HBc accumulation, aggregates/or incorrect capsid structures”; the “Effect on Capsid Assembly, Starting Concentration” value (“Effect … Starting Concentration” for short) was found to be 10 µM.
`COC(=O)C1=C(C[N+]23CCC(CC2)C(O)C3)NC(c2ncc(F)cc2F)=NC1c1ccc(F)cc1Cl` (stereo not drawn) [3d]: the “The Highest Non-Toxic Concentration” value in the data set with BHK-21 cells (hamster) worked out at 100 µM. In data set [1], the “Effect on capsid production / mobility in initial test” value is given as “inhibitory effect” and the “Effect on Capsid Assembly” value was “Capsid signal decrease, possible changes in NS packaging”.
For the compound `CCCOCCOC(=O)C1=C(C)NC(c2ncc(F)cc2F)=NC1c1ccccc1OC(F)F` (stereo not drawn) (hydrate or solvate) [1g], the melting point was 164 to 165 °C.
On the same count and under the same terms, to `CC1=C(C(=O)OCCOC(C)C)C(c2ccc(F)cc2Cl)N=C(c2ncc(F)cc2F)N1` (stereo not drawn) (hydrate or solvate) [1e] belongs 156 to 157 °C.
In turn, `CCOC(=O)C1=C(C)NC(c2nccs2)=NC1c1ccccc1` (stereo not drawn) (hydrate or solvate) [1k] gave a melting point of 129 to 130 °C.
For `CCOC(=O)C1=C(C)NC(c2nccs2)=NC1c1ccc(F)cc1` (stereo not drawn) [1j], in data set [1], the “Type of effect on HBV capsid assembly” value is given as “dose-dependent HBc products accumulation”; the “Effect on capsid production / mobility in initial test” value is “misfolding of the HBV capsid”; the “Effect on Capsid Assembly” value is on record as “HBc accumulation, aggregates/or incorrect capsid structures”; the “Effect … Starting Concentration” value stood at 5 µM.
`COc1ccccc1NC(=O)C1=C(C)NC(c2ncc(F)cc2F)=NC1c1ccc(F)cc1Cl` (stereo not drawn) (hydrate or solvate) [1i]: the melting point was 149 to 150 °C.
For `CCOC(=O)C1=C(C)NC(c2nccs2)=NC1c1ccccc1` (stereo not drawn) [1k], in data set [1], the “Effect on capsid production / mobility in initial test” value was “misfolding of the HBV capsid”; the “Effect on Capsid Assembly” value is on record as “Dose dependent HBc accumulation, aggregates/or incorrect capsid structures”; the “Effect … Starting Concentration” value is 1 µM.
In the case of `CCCCCC[n+]1ccc(C)cc1.Cc1ccc(S(=O)(=O)[O-])cc1` [7a], the “The Highest Non-Toxic Concentration” value with BHK-21 cells (setting [3]) is 50 µM. For the same compound, in data set [1], the “Effect on capsid production / mobility in initial test” value is “did not induce a significant effect on the capsid mobility” and the “Effect on Capsid Assembly” value is “No effect”.
As to `O=C1OCC2=C1C(c1ccc(F)cc1Cl)N=C(c1ncc(F)cc1F)N2` (stereo not drawn) [compound 5], in data set [1], the “Type of effect on HBV capsid assembly” value is listed as “dose-dependent HBc products accumulation”; the “Effect on capsid production / mobility in initial test” value is “misfolding of the HBV capsid”; the “Effect on Capsid Assembly” value was “HBc accumulation, aggregates/or incorrect capsid structures”; the “Effect … Starting Concentration” value was 50 µM.
On to `CCOC(=O)c1c(C)nc(-c2nccs2)nc1-c1ccccc1` [4a], for which the melting point was 93 to 94 °C. In data set [1], the “Effect on capsid production / mobility in initial test” value is “did not induce a significant effect on the capsid mobility” and the “Effect on Capsid Assembly” value is “No effect”.
`CC1=C(C(=O)Nc2ccccn2)C(c2ccc(F)cc2Cl)N=C(c2ncc(F)cc2F)N1` (stereo not drawn) [1h]: in the data set on BHK-21 cells (setting [3]), the “The Highest Non-Toxic Concentration” value is 150 µM. Besides, the viability at 24 h, 200 µM in data set [2] is > 90%. Moreover, in data set [1], the “Type of effect on HBV capsid assembly” value is recorded as “dose-dependent HBc signal decrease”; the “Effect on Capsid Assembly” value is recorded as “Dose dependent capsid signal decrease”; the “Effect … Starting Concentration” value is 20 µM.
For `CC1=C(C(=O)Nc2ccccn2)C(c2ccc(F)cc2Cl)N=C(c2ncc(F)cc2F)N1` (stereo not drawn) (hydrate or solvate) [1h], the melting point lay in the range of 152 to 153 °C.
`COC(=O)C1=C(C[n+]2ccccc2)NC(c2ncc(F)cc2F)=NC1c1ccc(F)cc1Cl` (stereo not drawn) [3a] registered a melting point of 173 to 174 °C. For the same compound, in data set [1], the “Effect on capsid production / mobility in initial test” value is given as “did not induce a significant effect on the capsid mobility” and the “Effect on Capsid Assembly” value is listed as “No effect”.
As to `CCOC(=O)C1=C(C)NC(c2ncc(F)cc2F)=NC1c1ccc(F)cc1` (stereo not drawn) (hydrate or solvate) [1c], the melting point lay within 126 to 127 °C.
Compound `COC(=O)C1=C(C[N+]2(C)CCOCC2)NC(c2ncc(F)cc2F)=NC1c1ccc(F)cc1Cl` (stereo not drawn) [3c] had a melting point of 181 to 182 °C. For the same compound, in the data set on BHK-21 cells (setting [3]), the “The Highest Non-Toxic Concentration” value came out at 150 µM. In data set [1], the “Effect on capsid production / mobility in initial test” value is “did not induce a significant effect on the capsid mobility” and the “Effect on Capsid Assembly” value was “No effect”.
Take `CCOC(=O)c1c(C)nc(-c2nccs2)nc1-c1ccc(F)cc1` [4b]: in data set [1], the “Effect on capsid production / mobility in initial test” value is “did not induce a significant effect on the capsid mobility” and the “Effect on Capsid Assembly” value is reported as “No effect”.
Turning to `CCOC(=O)C1=C(C)NC(c2ncc(F)cc2F)=NC1c1ccc(F)cc1` (stereo not drawn) [1c], in data set [1], the “Effect on capsid production / mobility in initial test” value was “inhibitory effect”; the “Effect on Capsid Assembly” value is given as “Capsid signal decrease”; the “Effect … Starting Concentration” value was 5 µM.
`CCOC(=O)C1=C(C)NC(c2nccs2)=NC1c1ccc(F)cc1` (stereo not drawn) (hydrate or solvate) [1j] showed a melting point of 114 to 115 °C.
For the compound `CCCOCCOC(=O)C1=C(C)NC(c2ncc(F)cc2F)=NC1c1ccccc1OC(F)F` (stereo not drawn) [1g], the “The Highest Non-Toxic Concentration” value in the data set on BHK-21 cells (setting [3]) came out at 50 µM. Besides, in data set [1], the “Effect on capsid production / mobility in initial test” value is given as “did not induce a significant effect on the capsid mobility; also recorded: some increase in capsid band signal” and the “Effect on Capsid Assembly” value was “Insignificant capsid amount increases”.
For `COc1ccccc1NC(=O)C1=C(C)NC(c2ncc(F)cc2F)=NC1c1ccc(F)cc1Cl` (stereo not drawn) [1i], the “The Highest Non-Toxic Concentration” value in the data set with BHK-21 cells (setting [3]) was determined as 50 µM. In addition, the viability at 24 h, 200 µM in data set [2] came out at 71%. Also, in data set [1], the “Type of effect on HBV capsid assembly” value is “dose-dependent HBc signal decrease”; the “Effect on Capsid Assembly” value was “Dose dependent capsid signal decrease”; the “Effect … Starting Concentration” value was 20 µM.
As to `CCCOCCOC(=O)C1=C(C)NC(c2ncc(F)cc2F)=NC1c1ccc(F)cc1Cl` (stereo not drawn) (hydrate or solvate) [1f], the melting point was 149 to 150 °C.
The same measure, in the same setting: to `CCOCCOC(=O)C1=C(C)NC(c2ncc(F)cc2F)=NC1c1ccc(F)cc1Cl` (stereo not drawn) (hydrate or solvate) [1d] belongs 143 to 144 °C.
Turning to `CCCCCCCCCCCCCCCC[n+]1ccc(C)cc1.Cc1ccc(S(=O)(=O)[O-])cc1` [7b], in data set [1], the “Effect on capsid production / mobility in initial test” value is reported as “did not induce a significant effect on the capsid mobility” and the “Effect on Capsid Assembly” value was “No effect”.
Regarding `COC(=O)C1=C(C[N+]2(C)CCCC2)NC(c2ncc(F)cc2F)=NC1c1ccc(F)cc1Cl` (stereo not drawn) [3b], the melting point is 167 to 168 °C. In data set [1], the “Effect on capsid production / mobility in initial test” value was “did not induce a significant effect on the capsid mobility” and the “Effect on Capsid Assembly” value was “No effect”.
Consider `CC1=C(C(=O)O)C(c2ccc(F)cc2Cl)N=C(c2ncc(F)cc2F)N1` (stereo not drawn) [1b], for which the “HBV DNA, % from control” value with HBV (10 µM) turned out to be 74.3%. In the data set with BHK-21 cells (setting [3]), the “The Highest Non-Toxic Concentration” value worked out at 50 µM. In data set [2], the viability at 24 h, 200 µM was > 90%. In data set [1], the “Type of effect on HBV capsid assembly” value is “dose-dependent HBc signal decrease”; the “Effect on capsid production / mobility in initial test” value is “inhibitory effect”; the “Effect on Capsid Assembly” value is reported as “Dose dependent capsid signal decrease”; the “Effect … Starting Concentration” value is 10 µM.

In general, viability refers to the share of living cells, or the viability signal relative to a control. A word on the melting point: it is the temperature of the solid-liquid transition.
